# In paper PMC3177605 (Bioorganic & medicinal chemistry letters, 2009):
# What was measured:
# mGluR5 [1] = experiment: functional mGluR5 antagonist assay; format: cell-based; details: for IC50 in functional HTS: identified from the functional HTS
# mGluR5 [2] = target: mGluR5 (Rattus norvegicus, UniProt P31424); experiment: functional mGluR5 antagonist assay; format: cell-based
# Chain of mGluR5 (Rattus norvegicus, UniProt P31424) (P31424 21-1203): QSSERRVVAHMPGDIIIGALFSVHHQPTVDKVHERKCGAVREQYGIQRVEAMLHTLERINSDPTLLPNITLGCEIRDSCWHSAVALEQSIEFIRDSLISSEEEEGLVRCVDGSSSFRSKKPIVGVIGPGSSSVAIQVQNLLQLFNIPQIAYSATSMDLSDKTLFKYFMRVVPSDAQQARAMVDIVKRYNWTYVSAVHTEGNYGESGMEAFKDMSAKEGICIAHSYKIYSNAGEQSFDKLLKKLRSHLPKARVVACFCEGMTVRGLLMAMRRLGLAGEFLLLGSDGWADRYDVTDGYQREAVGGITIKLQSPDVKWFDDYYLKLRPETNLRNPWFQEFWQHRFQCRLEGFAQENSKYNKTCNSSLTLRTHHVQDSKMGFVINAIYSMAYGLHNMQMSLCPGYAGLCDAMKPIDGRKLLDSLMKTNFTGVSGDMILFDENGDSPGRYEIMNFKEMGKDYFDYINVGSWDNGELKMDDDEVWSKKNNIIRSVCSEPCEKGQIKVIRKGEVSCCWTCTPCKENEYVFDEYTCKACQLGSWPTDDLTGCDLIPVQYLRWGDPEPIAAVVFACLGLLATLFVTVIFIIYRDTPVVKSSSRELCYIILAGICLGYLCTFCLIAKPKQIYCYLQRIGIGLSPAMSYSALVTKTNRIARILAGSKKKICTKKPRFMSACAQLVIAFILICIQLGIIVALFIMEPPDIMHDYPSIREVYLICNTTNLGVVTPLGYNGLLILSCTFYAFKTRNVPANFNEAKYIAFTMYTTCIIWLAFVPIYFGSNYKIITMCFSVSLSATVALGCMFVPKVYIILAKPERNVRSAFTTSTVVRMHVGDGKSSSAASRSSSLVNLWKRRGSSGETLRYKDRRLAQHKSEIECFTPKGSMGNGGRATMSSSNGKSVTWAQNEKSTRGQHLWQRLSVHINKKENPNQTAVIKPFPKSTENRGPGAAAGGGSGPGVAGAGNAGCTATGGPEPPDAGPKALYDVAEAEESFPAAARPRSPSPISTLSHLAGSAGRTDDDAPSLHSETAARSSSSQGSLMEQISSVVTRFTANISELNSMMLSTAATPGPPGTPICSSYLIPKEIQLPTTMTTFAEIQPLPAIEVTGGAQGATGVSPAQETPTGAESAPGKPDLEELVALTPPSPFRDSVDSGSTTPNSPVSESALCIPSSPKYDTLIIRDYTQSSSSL
# Chain of mGluR5 (P31424 21-1203): as above
smiles,measurement,setting,value
O=C(c1ccco1)N1CCCC2(CCCCC2)C1 [Cmpd 10],IC50 in functional HTS,mGluR5 [1],submicromolar
O=C(N1CCN(c2ccccn2)CC1)C12CC3CC(CC(C3)C1)C2 [Cmpd 11],IC50 in functional HTS,mGluR5 [1],submicromolar
"Cc1cc(C)c2c(N)c(C(=O)c3ccc(F)cc3)oc2n1 [Cmpd 12, (3-amino-4,6-dimethylfuro[2,3-b]pyridine-2-yl)(4-fluorophenyl)methanone]",IC50,"mGluR5 [2]; read-out: mGluR5 IC50, newly synthesized material",150 nM
same,% Glu Max,mGluR5 [2]; upon resynthesis,1.39%
O=C(N1CCN(c2ccncc2)CC1)C12CC3CC(CC(C3)C1)C2 [Cmpd 20b],mGluR5 inhibitory activity,mGluR5 [1],loses all mGluR5 inhibitory activity
